Several values for one entry are separate records, joined by “and”; a condition that tells them apart may be missing. Equal values may be shown once. Entries after “also recorded” stand apart in the source; their conditions may differ. Read-outs that look alike come from different tables or passages of the source.
Columns and labels:
[1] = molecular target: T1, dopamine-D2 receptor (Rattus norvegicus, UniProt P61169); test: Adenylate cyclase activity in membranes from GH4ZR7 cells; format: biochemical; set-up: Full-length dopamine-D2 cDNA (17) was excised from λGT10 with Sal I; expressed in transfected cells; settings: for efficacy: forskolin-stimulated adenylate cyclase
Method: Adenylate Cyclase Assay: The conversion of α^32P-ATP to ^32P-cAMP was determined essentially as described by Salomon et al. (24). […] Assays carried out in triplicate were initiated by warming to 25° C. and terminated by cooling to 0° C. Trichloroacetic acid (100 μl of 30% solution) was added to each assay, and ^3H-cAMP (30,000 cpm) was added to each tube as an internal standard. The assay volume was increased to 1 ml by addition of water, and tubes were centrifuged (2000 g×10 min). cAMP in the supernatant was isolated by sequential chromatography on columns containing Dowex AG50W-X4 resin and neutral alumina. The 2-ml eluate from each alumina columntwas dissolved in 10 ml of Bio-Safe II (RPI, Mount Prospect, Ill.) for liquid scintillation counting. Calculations: Data from cAMP and PRL assays are expressed as means±standard error for triplicate determinations. Curve-fitting parameters were obtained by nonlinear regression analysis using the Enzfitter program (Elsevier Biosoft). Average affinity, EC50 and IC50 values are geometric means of the indicated number of experiments. In competition experiments, KI values were calculated from experimentally determined IC50 values by the method of Cheng and Prusoff (25).

[2] = molecular target: T1, dopamine-D2 receptor; test: cAMP accumulation in GH4ZR7 cells
Method: (§1) cAMP and PRL Assay: Cells were plated in 6-well, 35 mm dishes, 3-7 days prior to experimentation. Cells were pre-incubated in 2 ml/well warm F10+0.1% (−)-ascorbic acid+20 mM Tris (pH 7.2) (FAT) for 5-10 min, followed by addition of 1 ml/well of FAT+100 μm IBMX+experimental compounds, and incubated for 30 min. at 37° C. Experimental compounds were diluted 200- to 1000-fold from stock solutions made immediately prior to assay. […] Media were collected, and the cells were lysed immediately in 1 ml of boiling water. Cell lysates and media were centrifuged (2000×g, 10 min., 4° C.), and the supernatants collected for assay as cell extracts. Cell extracts and media samples were frozen at −20° C. until assay, if not assayed immediately. cAMP was assayed by a specific radioimmunoassay as described (22), with antibody used at 1:500 dilution. After 16 h incubation at 4° C., 20 μl of 10% BSA and 1 ml of 95% ethanol were added consecutively to precipitate the antibody-antigen complex. […] PRL was assayed in the media samples obtained as described above, except that IBMX was omitted during the 30 min incubation in FAT medium. PRL levels were determined by specific radioimmunoassay using Staphyloccus A lysate (IgSorb, The Enzyme Center, Malden, Mass.) to precipitate antigen-antibody complexes (23).

[3] = molecular target: T2, rat dopamine D-2 receptor (Rattus norvegicus, UniProt P61169)
Method: Receptor binding assay: The membrane preparation was thawed, centrifuged at 24,000×g for 20 min., and resuspended in Tris-isosaline except where indicated. […] Assays were carried out in duplicate in a volume of 2 ml for saturation analyses or 1 ml for inhibition analyses. Incubations were initiated by the addition of 15-50 μg of protein, carried out at 37° for 50 min., and stopped by the addition of 10 ml of ice-cold wash buffer (10 mM Tris, pH 7.4, and 0.9% NaCl) to each assay. The samples were filtered through glass-fibre filters (Schleicher & Schuell No. 30) and washed with an additional 10 ml of wash buffer. […] Data were analyzed by nonlinear regression using the data analysis program Enzfitter (Elsevier-Biosoft). […] Averages for KI and KD values are the geometric means. In experiments designed to assess the effect of GTP and NaCl on the binding of DA, fresh tissue was used. Cells were harvested, centrifuged, and Mg^2+ resuspended in Tris-Mg^2+ (50 mM Tris, pH 7.4, and 4 mM MgCl2). Tissue was incubated for 15 min. at 37° in this buffer before re-centrifugation.

[4] = molecular target: T2, rat dopamine D-2 receptor; settings: for blockade of inhibition of adenylate cyclase by 10 μM DA: 10 μM (+)-butaclamol in assay, pertussis toxin 50 ng/ml 16 hours on cells
Method: Adenylate cyclase assay: The conversion of [α^32P]ATP to [^32P]cAMP was determined essentially as described by Salomon et al. (14). […] Assays were initiated by warming to 25° and terminated after 20 minutes by cooling to 0°, then adding trichloroacetic acid (100 μl of a 30% solution) to each assay. [^3H]Cyclic AMP (approximately 30,000 cpm) was added to each assay as an internal standard. The assay volume was brought up to 1 ml with water, and tubes were centrifuged for 10 min. at 2000×g. Cyclic AMP in the supernatant was isolated by sequential chromatography on columns containing Dowex AG50W-X4 resin and neutral alumina. The 2-ml eluate from each column of alumina was dissolved in 10 ml of Bio-Safe II (RPI, Mount Prospect, Ill.) for liquid scintillation counting. Dose-response curves for inhibition of adenylate cyclase activity by agonists were analyzed by nonlinear regression using the program Enzfitter. The data were fit to the equation:
where E is the amount of enzyme activity, expressed as percentage of total stimulated activity, A is the concentration of agonists, EC50 is the concentration of agonist causing half-maximal inhibition of enzyme activity, Emax is the enzyme activity observed in the presence of maximally inhibiting concentrations of agonist, expressed as the percentage of total stimulated activity, and N is a slope factor. Averages of EC50 values are the geometric means.

[5] = tested on: GH4C1 cells
Method: as §1

[6] = molecular target: rat D2 dopamine receptor (Rattus norvegicus, UniProt P61169)
Method: (§2) The homogenizing solution was centrifuged at 800×g for 10 min. and the pellet was subjected to a second homogenization and centrifugation as before. The supernatants were pooled and centrifuged at 200,000×g for 1 hour. […] In some experiments 100 uM guanosine 5′-triphosphate was included. […] Incubations were initiated by the addition of 15-40 μg of protein, carried out at 37° C. for 50 minutes, and stopped by the addition of 10 ml of ice-cold wash buffer (10 mM Tris, pH=7.4, and 0.9% NaCl) to each assay. The samples were filtered through glass-fiber filters (Schleicher and Schuell No. 30) and washed with an additional 10 ml of wash buffer. The radioactivity retained on the filter was counted using a Beckman LS 1701 scintillation counter. Data were analyzed as previously described (29) except that curves were drawn using the data analysis program Enzfitter. The resulting IC50 values were converted to Ki values by the method of Cheng and Prusoff (30).

[7] = molecular target: human dopamine D2 receptor (Homo sapiens, UniProt P14416); test: [3H]-domperidone binding to L-hPitD2Zem membranes
Method: The 2.5-kb human pituitary cDNA (hPitD2) was cloned into pZem3 (a gift from Dr. E. Mulvihill, Zymogenetics) and co-transfected with the pRSVneo gene into mouse Ltk^− cells by CaPo4 precipitation (10). A stable transfectant (L-hPitD2Zem) was selected and maintained in 750 μg/ml of G418 (Geneticin sulphate, Gibco). Twenty hours prior to the harvesting of membranes, these cells were incubated with 70 μM zinc sulphate. […] For the binding assays, membrane protein was used at 10-15 μg from L-hPitD2Zem, 50-75 μg from L-RGB2Zem-1, and 220-250 μg from rat striatum. […] The filters were washed twice in ice cold 50 mM Tris-HCl, pH 7.4. […] The Bmax, Kd, and IC50 values were determined as previously described (14).

[8] = tested on: D2 dopamine receptors in rat striatal membranes; test: 3H-spiperone binding to rat striatal membranes; settings: at the concentrations used
Method: as §2

[9] = molecular target: T1, dopamine-D2 receptor; test: Acute PRL release in GH4ZR7 cells; format: cell-based; set-up: Full-length dopamine-D2 cDNA (17) was excised from λGT10 with Sal I; expressed in transfected cells; settings: 30 min
Method: as §1

T2 sequence (P61169 1-415 isoform P61169-2): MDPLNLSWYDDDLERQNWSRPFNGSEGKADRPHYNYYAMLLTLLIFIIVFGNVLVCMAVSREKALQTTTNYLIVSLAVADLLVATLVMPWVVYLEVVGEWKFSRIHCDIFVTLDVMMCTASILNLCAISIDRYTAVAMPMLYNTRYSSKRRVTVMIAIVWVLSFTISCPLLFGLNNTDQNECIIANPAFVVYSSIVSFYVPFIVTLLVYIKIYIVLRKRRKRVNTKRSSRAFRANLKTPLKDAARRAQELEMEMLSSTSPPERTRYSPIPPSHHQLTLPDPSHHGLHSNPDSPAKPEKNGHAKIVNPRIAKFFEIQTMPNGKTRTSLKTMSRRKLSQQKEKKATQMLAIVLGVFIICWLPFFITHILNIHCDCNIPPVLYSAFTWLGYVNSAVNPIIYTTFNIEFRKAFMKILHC
T1 sequence (P61169 1-415 isoform P61169-2): as above
human dopamine D2 receptor, sequence (P14416 whole entry): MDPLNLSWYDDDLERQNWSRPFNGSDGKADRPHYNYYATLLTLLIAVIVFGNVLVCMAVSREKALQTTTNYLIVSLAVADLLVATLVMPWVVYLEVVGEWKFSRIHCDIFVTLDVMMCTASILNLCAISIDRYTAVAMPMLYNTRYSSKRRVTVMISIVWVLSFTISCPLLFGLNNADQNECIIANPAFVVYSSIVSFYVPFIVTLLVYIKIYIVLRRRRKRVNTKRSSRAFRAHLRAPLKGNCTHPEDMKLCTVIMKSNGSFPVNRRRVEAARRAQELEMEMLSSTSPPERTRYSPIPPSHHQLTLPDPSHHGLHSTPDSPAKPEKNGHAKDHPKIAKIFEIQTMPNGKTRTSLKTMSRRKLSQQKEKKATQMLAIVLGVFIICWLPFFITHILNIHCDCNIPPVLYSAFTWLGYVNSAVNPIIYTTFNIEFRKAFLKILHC
rat D2 dopamine receptor, sequence (P61169 1-415 isoform P61169-2): as the sequence (P61169 1-415 isoform P61169-2) above

CCCN1CCCC(c2cccc(O)c2)C1 (single isomer, unassigned; (+)) [(+)3-PPP, 3-(3-hydroxyphenyl)-N-n-propylpiperidine]
efficacy [1]: as efficacious as dopamine

CCN1CCCC1CNC(=O)c1cc(S(N)(=O)=O)ccc1OC (single isomer, unassigned; (+)) [(+)-sulpiride]
blockade of dopamine inhibition of cAMP accumulation [2]: did not block; also recorded: little or no effect

CCCN1CCCC(c2cccc(O)c2)C1 (single isomer, unassigned; (-)) [(−)3-PPP, 3-(3-hydroxyphenyl)-N-n-propylpiperidine]
efficacy [1]: did not consistently reduce | Hill coefficient ([3]; single experiment FIG. 9A): 0.89

CCN1CCC[C@H]1CNC(=O)c1cc(S(N)(=O)=O)ccc1OC [(−)-sulpiride]
blockade of dopamine inhibition of cAMP accumulation [2]: blocked dopamine action | effect of antagonist alone on basal cAMP ([2]; absence of dopamine): did not alter basal cAMP levels

CC(C)C[C@H]1C(=O)N2CCC[C@H]2[C@]2(O)O[C@](NC(=O)[C@@H]3C=C4c5cccc6[nH]c(Br)c(c56)C[C@H]4N(C)C3)(C(C)C)C(=O)N12 [bromocriptine]
inhibition of forskolin-stimulated adenylate cyclase activity [1]: 23% | maximal inhibition [1]: 23% | EC50 ([1]; read-out: EC50): 6 nM | EC50 ([1]; read-out: EC50, inhibition of adenylate cyclase): 5 nM | EC50 [4]: 45 nM and 40 nM | Max (maximal inhibition of adenylate cyclase activity) [4]: 17 ± 1% | agonist activity / efficacy [4]: less efficacious than DA | Ki ([3]; [3H]spiroperidol 0.2 nM, GTP and NaCl present, geometric mean of 2 experiments): 2.4 nM | rank among the six compounds tested ([3]; inhibition of radioligand binding, LZR1): most potent | Ki ([3]; read-out: KI for inhibition of [3H]spiroperidol binding, single experiment FIG. 9A, radioligand 230 pM): 5 nM | Ki ([3]; read-out: mean KI, 0.1 mM GTP and 120 mM NaCl, LZR1 membranes): 2 nM | Hill coefficient ([3]; single experiment FIG. 9A): 1.05

NCCc1ccc(O)c(O)c1 [dopamine]
effect on basal, VIP-stimulated or TRH-stimulated PRL secretion ([5]; GH4C1 cells, data not shown): no effect | effect on extracellular cAMP levels ([5]; wild-type GH4C1 cells, VIP omitted or present): no effect

O=C(c1ccc(F)cc1)C1CCN(CCn2c(=O)[nH]c3ccccc3c2=O)CC1 [ketanserin]
potency at inhibiting 3H-spiperone binding ([6]; L-RGB2Zem-1 membranes): much less potent

CN1CCN2c3ccccc3Cc3ccccc3C2C1 (centres unmarked) [mianserin]
inhibition of domperidone binding ([7]; [3H]-domperidone 1 nM): only at very high concentrations

O=C(CCCN1CCC2(CC1)C(=O)NCN2c1ccccc1)c1ccc(F)cc1 [spiperone]
blockade of dopamine inhibition of cAMP accumulation [2]: blocked dopamine action | effect of antagonist alone on basal cAMP [2]: did not alter basal cAMP levels

CCN1CCCC1CNC(=O)c1cc(S(N)(=O)=O)ccc1OC (centres unmarked) [sulpiride]
share of (+)-butaclamol-displaceable binding not inhibited [8]: 10-15%

(+)-butaclamol
potency at inhibiting 3H-spiperone binding [6]: most potent inhibitors | blockade of inhibition of adenylate cyclase by 10 μM DA [4]: prevented

(−)-butaclamol
inhibition of domperidone binding [7]: only at very high concentrations

VIP: vasoactive intestinal peptide
enhancement of PRL secretion [9]: 1.5 fold | total adenylate cyclase activity stimulated ([1]; 200 nM VIP, n=3): 22±7 pmol/mg protein/min | VIP-induced enhancement of cAMP levels [2]: 8-12 times basal levels

pertussis toxin
effect of pretreatment on dopamine inhibition of forskolin-stimulated adenylate cyclase ([1]; pertussis toxin 16 h): uncoupled | effect of pretreatment on inhibition of basal and VIP-stimulated cAMP by dopamine ([2]; pertussis toxin 50 ng/ml, 16 h): abolished | blockade of inhibition of adenylate cyclase by 10 μM DA [4]: blocked | forskolin-stimulated adenylate cyclase activity versus control membranes ([4]; membranes from pertussis toxin-treated cells): approximately 2.5 fold
